In ChEMBL document CHEMBL3046513, “Synthesis, characterization, and biological evaluation of some N-aryl hydrazones and their 2,3-disubstituted-4-thiazolidinone derivatives” (Med Chem Res, 2013):
In brackets after ≈: the same amount, converted by molar mass.

How the values were obtained:
Type in all cases: functional
Rattus norvegicus [1] = assay: Anti-inflammatory activity in Rattus norvegicus (rat) assessed as decrease in carrageenan-induced paw edema at 100 mg/kg, po administered 30 min prior to carrageenan challenge measured after 120 min (reference value: 2.375 +/- 0.1436 mm)
Rattus norvegicus [2] = assay: Anti-inflammatory activity in Rattus norvegicus (rat) assessed as decrease in carrageenan-induced paw edema at 100 mg/kg, po administered 30 min prior to carrageenan challenge measured after 180 min (reference value: 2.275 +/- 0.1181 mm)
Bacillus cereus = assay: Antibacterial activity against Bacillus cereus assessed as growth inhibition by serial plate dilution method
Staphylococcus aureus = assay: Antibacterial activity against Staphylococcus aureus ATCC 25923 assessed as growth inhibition by serial plate dilution method
Pseudomonas aeruginosa = assay: Antibacterial activity against Pseudomonas aeruginosa ATCC 27853 assessed as growth inhibition by serial plate dilution method
Mus musculus [3] = assay: Analgesic activity in Mus musculus […] albino (mouse) assessed as time taken to tail withdrawl at 100 mg/kg, po administered through intragastric tube after 120 min by tail flick test (reference value: 1.363 +/- 0.1297 secs)
Mus musculus [4] = assay: Analgesic activity in Mus musculus […] albino (mouse) assessed as time taken to tail withdrawl at 100 mg/kg, po administered through intragastric tube after 180 min by tail flick test (reference value: 1.363 +/- 0.1297 secs)
Mus musculus [5] = assay: Analgesic activity in Mus musculus […] albino (mouse) assessed as time taken to tail withdrawl at 100 mg/kg, po administered through intragastric tube after 60 min by tail flick test (reference value: 1.363 +/- 0.1297 secs)
Escherichia coli = assay: Antibacterial activity against Escherichia coli ATCC 25922 assessed as growth inhibition by serial plate dilution method
Rattus norvegicus [6] = assay: Anti-inflammatory activity in Rattus norvegicus (rat) assessed as decrease in carrageenan-induced paw edema at 100 mg/kg, po administered 30 min prior to carrageenan challenge measured after 60 min (reference value: 2.175 +/- 0.1797 mm)
Candida albicans = assay: Antifungal activity against Candida albicans assessed as growth inhibition by serial plate dilution method
[7] = tested on: Radical scavenging activity; assay: Antioxidant activity assessed as inhibition of DPPH radical generation at 400 ug/mL after 20 min by spectrophotometric analysis relative to control
[8] = tested on: Radical scavenging activity; assay: Antioxidant activity assessed as inhibition of DPPH radical generation at 800 ug/mL after 20 min by spectrophotometric analysis relative to control
[9] = tested on: Radical scavenging activity; assay: Antioxidant activity assessed as inhibition of DPPH radical generation at 200 ug/mL after 20 min by spectrophotometric analysis relative to control

## COc1ccc(Br)c(C(=O)NN2C(=O)CSC2C2=C(Cl)c3ccccc3C(c3ccc(Cl)c(Cl)c3)C2)c1 (configuration not stated)
Rattus norvegicus [1]
  Activity: 2.175 mm
Rattus norvegicus [2]
  Activity: 2.025 mm
Bacillus cereus
  MIC: 12.5 µg/mL (≈ 19.6 µM)
Staphylococcus aureus
  MIC: 6.25 µg/mL (≈ 9.78 µM)
Pseudomonas aeruginosa
  MIC: 6.25 µg/mL (≈ 9.78 µM)
Mus musculus [3]
  Time: 3.388 s
Mus musculus [4]
  Time: 2.338 s
Mus musculus [5]
  Time: 3.463 s
Escherichia coli
  MIC: 12.5 µg/mL (≈ 19.6 µM)
Rattus norvegicus [6]
  Activity: 2.025 mm
Candida albicans
  MIC: 6.25 µg/mL (≈ 9.78 µM)

## COc1ccc(Br)c(C(=O)N/N=C\c2ccccc2Cl)c1
Bacillus cereus
  MIC: 6.25 µg/mL (≈ 17 µM)
Staphylococcus aureus
  MIC: 12.5 µg/mL (≈ 34 µM)
Pseudomonas aeruginosa
  MIC: 6.25 µg/mL (≈ 17 µM)
Escherichia coli
  MIC: 6.25 µg/mL (≈ 17 µM)
Candida albicans
  MIC: 6.25 µg/mL (≈ 17 µM)

## O=C1O[C@H]([C@@H](O)CO)C(O)=C1O
[7]
  inhibition: 95%
[8]
  inhibition: 96%
[9]
  inhibition: 87.6%

## COc1ccc(Br)c(C(=O)NN2C(=O)CSC2c2cccnc2)c1 (configuration not stated)
Rattus norvegicus [1]
  Activity: 1.75 mm
[7]
  inhibition: 23.5%
Rattus norvegicus [2]
  Activity: 1.9 mm
Bacillus cereus
  MIC: 6.25 µg/mL (≈ 15.3 µM)
Staphylococcus aureus
  MIC: 6.25 µg/mL (≈ 15.3 µM)
Pseudomonas aeruginosa
  MIC: 6.25 µg/mL (≈ 15.3 µM)
Mus musculus [3]
  Time: 3.6 s
Mus musculus [4]
  Time: 2.938 s
Mus musculus [5]
  Time: 3.25 s
Escherichia coli
  MIC: 6.25 µg/mL (≈ 15.3 µM)
Rattus norvegicus [6]
  Activity: 1.45 mm
[8]
  inhibition: 25.1%
Candida albicans
  MIC: 3.12 µg/mL (≈ 7.65 µM)
[9]
  inhibition: 21.6%

## COc1ccc(Br)c(C(=O)NN2C(=O)CSC2c2ccc(O)cc2)c1 (configuration not stated)
Rattus norvegicus [1]
  Activity: 1.899 mm
[7]
  inhibition: 58%
Rattus norvegicus [2]
  Activity: 2.048 mm
Bacillus cereus
  MIC: 12.5 µg/mL (≈ 29.5 µM)
Staphylococcus aureus
  MIC: 12.5 µg/mL (≈ 29.5 µM)
Pseudomonas aeruginosa
  MIC: 6.25 µg/mL (≈ 14.8 µM)
Mus musculus [3]
  Time: 2.775 s
Mus musculus [4]
  Time: 2.532 s
Mus musculus [5]
  Time: 2.675 s
Escherichia coli
  MIC: 6.25 µg/mL (≈ 14.8 µM)
Rattus norvegicus [6]
  Activity: 1.89 mm
[8]
  inhibition: 58.3%
Candida albicans
  MIC: 6.25 µg/mL (≈ 14.8 µM)
[9]
  inhibition: 57.8%

## OC(Cn1cncn1)(Cn1cncn1)c1ccc(F)cc1F [FLUCONAZOLE]
Candida albicans
  MIC: 8 µg/mL (≈ 26.1 µM)

## COc1ccc(Br)c(C(=O)N/N=C\c2cccc(Cl)c2)c1
Bacillus cereus
  MIC: 12.5 µg/mL (≈ 34 µM)
Staphylococcus aureus
  MIC: 25 µg/mL (≈ 68 µM)
Pseudomonas aeruginosa
  MIC: 6.25 µg/mL (≈ 17 µM)
Escherichia coli
  MIC: 12.5 µg/mL (≈ 34 µM)
Candida albicans
  MIC: 6.25 µg/mL (≈ 17 µM)

## COc1ccc(Br)c(C(=O)NN2C(=O)CSC2c2ccccc2Cl)c1 (configuration not stated)
Rattus norvegicus [1]
  Activity: 1.975 mm
[7]
  inhibition: 65.9%
Rattus norvegicus [2]
  Activity: 2.075 mm
Bacillus cereus
  MIC: 6.25 µg/mL (≈ 14.1 µM)
Staphylococcus aureus
  MIC: 6.25 µg/mL (≈ 14.1 µM)
Pseudomonas aeruginosa
  MIC: 3.12 µg/mL (≈ 7.07 µM)
Mus musculus [3]
  Time: 2.125 s
Mus musculus [4]
  Time: 2.5 s
Mus musculus [5]
  Time: 1.963 s
Escherichia coli
  MIC: 12.5 µg/mL (≈ 28.3 µM)
Rattus norvegicus [6]
  Activity: 1.85 mm
[8]
  inhibition: 72.9%
Candida albicans
  MIC: 6.25 µg/mL (≈ 14.1 µM)
[9]
  inhibition: 59.3%

## COc1ccc(Br)c(C(=O)NN2C(=O)CSC2c2ccc(-c3ccccc3)cc2)c1 (configuration not stated)
Rattus norvegicus [1]
  Activity: 1.875 mm
[7]
  inhibition: 39.9%
Rattus norvegicus [2]
  Activity: 2.075 mm
Bacillus cereus
  MIC: 6.25 µg/mL (≈ 12.9 µM)
Staphylococcus aureus
  MIC: 12.5 µg/mL (≈ 25.9 µM)
Pseudomonas aeruginosa
  MIC: 6.25 µg/mL (≈ 12.9 µM)
Mus musculus [3]
  Time: 3.313 s
Mus musculus [4]
  Time: 3.113 s
Mus musculus [5]
  Time: 2.988 s
Escherichia coli
  MIC: 6.25 µg/mL (≈ 12.9 µM)
Rattus norvegicus [6]
  Activity: 1.45 mm
[8]
  inhibition: 62.5%
Candida albicans
  MIC: 6.25 µg/mL (≈ 12.9 µM)
[9]
  inhibition: 15.3%

## COc1ccc(/C=N\NC(=O)c2cc(OC)ccc2Br)cc1
Bacillus cereus
  MIC: 12.5 µg/mL (≈ 34.4 µM)
Staphylococcus aureus
  MIC: 12.5 µg/mL (≈ 34.4 µM)
Pseudomonas aeruginosa
  MIC: 3.12 µg/mL (≈ 8.6 µM)
Escherichia coli
  MIC: 12.5 µg/mL (≈ 34.4 µM)
Candida albicans
  MIC: 6.25 µg/mL (≈ 17.2 µM)

## O=C(O)Cc1ccccc1Nc1c(Cl)cccc1Cl [DICLOFENAC]
Rattus norvegicus [1]
  Activity: 0.625 mm
Rattus norvegicus [2]
  Activity: 0.625 mm
Rattus norvegicus [6]
  Activity: 0.6 mm

## COc1ccc(Br)c(C(=O)N/N=C\c2ccc([N+](=O)[O-])cc2)c1
Bacillus cereus
  MIC: 6.25 µg/mL (≈ 16.5 µM)
Staphylococcus aureus
  MIC: 12.5 µg/mL (≈ 33.1 µM)
Pseudomonas aeruginosa
  MIC: 6.25 µg/mL (≈ 16.5 µM)
Escherichia coli
  MIC: 6.25 µg/mL (≈ 16.5 µM)
Candida albicans
  MIC: 3.12 µg/mL (≈ 8.26 µM)

## COc1ccc(Br)c(C(=O)N/N=C\c2ccccc2OC)c1
Bacillus cereus
  MIC: 12.5 µg/mL (≈ 34.4 µM)
Staphylococcus aureus
  MIC: 6.25 µg/mL (≈ 17.2 µM)
Pseudomonas aeruginosa
  MIC: 3.12 µg/mL (≈ 8.6 µM)
Escherichia coli
  MIC: 12.5 µg/mL (≈ 34.4 µM)
Candida albicans
  MIC: 6.25 µg/mL (≈ 17.2 µM)

## CC(C)=CCN1CC[C@]2(C)c3cc(O)ccc3C[C@H]1[C@H]2C [(+)-PENTAZOCINE]
Mus musculus [3]
  Time: 6.863 s
Mus musculus [4]
  Time: 7.025 s
Mus musculus [5]
  Time: 7.075 s

## COc1ccc(Br)c(C(=O)N/N=C\c2ccc(O)c(OC)c2)c1
Bacillus cereus
  MIC: 6.25 µg/mL (≈ 16.5 µM)
Staphylococcus aureus
  MIC: 12.5 µg/mL (≈ 33 µM)
Pseudomonas aeruginosa
  MIC: 12.5 µg/mL (≈ 33 µM)
Escherichia coli
  MIC: 6.25 µg/mL (≈ 16.5 µM)
Candida albicans
  MIC: 12.5 µg/mL (≈ 33 µM)

## COc1ccc(Br)c(C(=O)N/N=C\c2ccc(Cl)cc2)c1
Bacillus cereus
  MIC: 12.5 µg/mL (≈ 34 µM)
Staphylococcus aureus
  MIC: 6.25 µg/mL (≈ 17 µM)
Pseudomonas aeruginosa
  MIC: 3.12 µg/mL (≈ 8.5 µM)
Escherichia coli
  MIC: 6.25 µg/mL (≈ 17 µM)
Candida albicans
  MIC: 3.12 µg/mL (≈ 8.5 µM)
